# Results from patent publication US9931401B2, “Combination comprising anti-fibroblast growth factor receptor 2 (FGFR2) antibody and a tyrosine kinase inhibitor” (Daiichi Sankyo Company, Limited, priority 2013, dated 2018).
# “Also recorded” adds a separate entry of the source.
# Key:
# [1] = test system: human stomach cancer cell line SNU-16; test: In vivo combined use with Ki23057, SNU-16-transplanted nude mice; parameters: species or system nude mouse; settings: in combination with hFR2-14_H19/L1 20 mg/kg
# Experimental: A human stomach cancer cell line SNU-16 (purchased from ATCC) was adjusted to 5×10^7 cells/mL with a 1:1 mixed solution of PBS and Matrigel (purchased from Nippon Becton Dickinson Company, Ltd.), and 0.1 mL of the cell suspension was subcutaneously transplanted to the axillary region of each nude mouse (CAnN.Cg-Foxnl^nu/CrlCrlj, female, 5 to 6 weeks old, purchased from Charles River Laboratories Japan Inc.). […] Administration of hFR2-14_H19/L1 was carried out 8, 11, 15, and 18 days after transplantation, and administration of Ki23057 was carried out 8, 9, 10, 11, 15, 16, 17, and 18 days after transplantation. The major axis (mm) and minor axis (mm) of the tumor were measured over time using an electronic digital caliper (manufactured by Mitsutoyo Corp.). The tumor volume was calculated according to the following expression: Tumor volume (mm^3)=½×[Major axis of the tumor]×[Minor axis of the tumor]×[Minor axis of the tumor]
# The antitumor effect was evaluated on the basis of the percentage of tumor growth inhibition (TGI %) at 21 days after transplantation (3 days after final administration) and 32 days after transplantation (final assay day) according to the following expression: TGI (%)=(1−A/B)×100
# [2] = test system: SNU-16 cells; test: Amount of antigen FGFR2 on cell surface of SNU-16 treated with low-molecular compound (QIFIKIT); format: cell-based, human; settings: 100 to 1000 nM; compared with untreated or DMSO-treated SNU-16 cells
# Experimental: This operation was repeated twice. […] The data was analyzed using Flowjo (manufactured by Tree Star Inc.).
# [3] = test system: human stomach cancer cell line SNU-16; test: In vivo combined use with AZD4547, SNU-16-transplanted nude mice; parameters: species or system nude mouse
# Experimental: A human stomach cancer cell line SNU-16 (purchased from ATCC) was adjusted to 5×10^7 cells/mL with a 1:1 mixed solution of PBS and Matrigel (purchased from Nippon Becton Dickinson Company, Ltd.), and 0.1 mL of the cell suspension was subcutaneously transplanted to the axillary region of each nude mouse (CAnN.Cg-Foxnl^nu/CrlCrlj, female, 5 to 6 weeks old, purchased from Charles River Laboratories Japan Inc.). […] The major axis (mm) and minor axis (mm) of the tumor were measured over time using an electronic digital caliper (manufactured by Mitsutoyo Corp.). The tumor volume was calculated according to the following expression: Tumor volume (mm^3)=½×[Major axis of the tumor]×[Minor axis of the tumor]×[Minor axis of the tumor]
# The antitumor effect was evaluated on the basis of the percentage of tumor growth inhibition (TGI %) at 21 days after transplantation (final assay day) according to the following expression: TGI (%)=(1−A/B)×100
Compound,TGI at 21 days after transplantation ([1]; Ki23057 5 mg/kg orally) [%],TGI at 32 days after transplantation (final assay day) ([1]; Ki23057 5 mg/kg orally) [%],TGI at 21 days after transplantation ([1]; Ki23057 20 mg/kg orally) [%],TGI at 32 days after transplantation (final assay day) ([1]; Ki23057 20 mg/kg orally) [%],number of the antigen FGFR2 on cell surface [2],"number of CR individuals among 9 mice at 21 days after transplantation ([3]; administered alone, hFR2-14_H19/L1 20 mg/kg)","TGI at 21 days after transplantation (final assay day) ([3]; hFR2-14_H19/L1 20 mg/kg intraperitoneally, AZD4547 3 mg/kg orally) [%]"
"COc1cc2c(Oc3ccc(Nc4ccc(C(C)(C)C)cc4)cc3)ccnc2cc1OCCNCCO [Ki23057, 2-((2-((4-(4-((4-(tert-butyl)phenyl)amino)phenoxy)-6-methoxyquinolin-7-yl)oxy)ethyl)amino)ethanol]",7,1,29,−14,elevated; also recorded: increased,–,–
"COc1cc(CCc2cc(NC(=O)c3ccc(N4C[C@@H](C)N[C@@H](C)C4)cc3)n[nH]2)cc(OC)c1 [AZD4547, N-(5-(3,5-dimethoxyphenethyl)-1H-pyrazol-3-yl)-4-((3S,5R)-3,5-dimethylpiperazin-1-yl)benzamide, reference compound]",–,–,–,–,–,0,24
